Reference: PubChem BioAssay (NCI)
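Cells were grown in 96-well plates and exposed to each compound for 48 hours at five concentrations; endpoints were interpolated linearly between bracketing concentrations, or set to the highest concentration if not reached. At the GI50, growth is halved. At the TGI there is no net growth.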

Tests used:
Experiment in all cases: inhibition of tumour cell growth, NCI panel, 48 h
[1] = test system: COLO 205 colon
[2] = test system: HCT-116 colon
[3] = test system: HCT-15 colon
[4] = test system: SNB-19 CNS
[5] = test system: SW-620 colon
[6] = test system: TK-10 renal
[7] = test system: EKVX NSCLC
[8] = test system: MDA-MB-231 breast
[9] = test system: NCI/ADR-RES ovarian
[10] = test system: T-47D breast

| Structure (SMILES) | TGI [1] [µM] | TGI [2] [µM] | TGI [3] [µM] | TGI [4] [µM] | TGI [5] [µM] | TGI [6] [µM] | TGI [7] [µM] | TGI [8] [µM] | TGI [9] [µM] | TGI [10] [µM] | GI50 [1] [µM] | GI50 [2] [µM] | GI50 [3] [µM] | GI50 [8] [µM] | GI50 [9] [µM] | GI50 [4] [µM] | GI50 [5] [µM] | GI50 [10] [µM] | GI50 [6] [µM] | GI50 [7] [µM] |
| --- | --- | --- | --- | --- | --- | --- | --- | --- | --- | --- | --- | --- | --- | --- | --- | --- | --- | --- | --- | --- |
| Cc1cccc(C(C)(C)C)c1NC(=O)CC1C(=O)Nc2ccccc2S1=O (stereo unspecified) | 40.9 | > 100 | > 100 | > 100 | > 100 | > 100 |  |  |  |  |  |  |  |  |  |  |  |  |  |  |
| COc1cc2c(cc1OC)-c1c(cnn1C1OC(COC(C)=O)C(OC(C)=O)C(OC(C)=O)C1OC(C)=O)CC2 (stereo unspecified) | > 100 | > 100 | > 100 | > 100 | > 100 | > 100 | > 100 |  |  |  |  |  |  |  |  |  |  |  |  |  |
| CC1C(=O)N=C2C(=CN(Cc3ccccc3)c3ccccc32)C(=O)N1C (stereo unspecified) | > 100 | > 100 | > 100 | > 100 | > 100 | > 100 |  | > 100 | > 100 | > 100 |  |  |  |  |  |  |  |  |  |  |
| COc1ccc(C2CC(=O)Nc3c2c(C)nn3-c2nc3ccccc3[nH]2)cc1 (stereo unspecified) | 14.7 | 4.38 | > 100 | > 100 | 20.6 | > 38.9 |  | 5.3 | > 100 | > 41.9 | 3.59 | 2.12 | 3.49 | 2.25 | 5.61 | 4.72 | 3.33 | 3.92 | 4.08 |  |
| CCN=C1NN=C(c2ccccc2)c2cc(Cl)ccc2N1 | 35.4 |  | 48.6 | > 100 | 63.8 | 62.7 | 92.7 |  |  |  |  |  |  |  |  |  |  |  |  |  |
| COc1ccc(-c2ccc(/C=N/n3cn[nH]c3=S)o2)c([N+](=O)[O-])c1 | > 100 | 94.4 | > 100 | > 100 | > 100 | 86.6 | > 100 |  | 94 | > 100 | 45.6 | 29.6 | 26 |  | 30.5 | 63.2 | 29.8 | 51.8 | 18 | 75 |
| CCCCCCN1C(=O)/C(=c2\sc3n(c2=O)C2C(NN=3)N(CC)C(=O)N2CC)c2ccccc21 (stereo unspecified) | 38.3 |  | > 50 | > 50 |  | > 50 | > 50 | 10.4 |  | > 50 | 2.21 |  | 1.62 | 1.77 |  | 3.03 |  | 1.66 | 1.72 | 2.84 |
| Cn1c2ccccc2c2c(=O)n(CCCC(=O)NCC(=O)OC(=NC3CCCCC3)NC3CCCCC3)c3c(-c4ccccc4)nnn3c21 | > 100 | 42.7 | > 100 |  | > 100 | > 100 |  | 37.7 | 33.5 |  | 2.81 | 14.3 | 10.8 | 12.4 | 15.6 |  | 3.76 |  | > 100 |  |
| CCN(CC)CCC(=O)Nc1cccc2c1C(=O)c1c(c(O)c3ccccc3c1O)C2=O | > 100 | > 100 | > 100 | 44.8 | 23 | 40.9 |  | 26.1 | 40.4 | > 100 | 20.7 | 8.8 | 0.934 | 9.64 | 3.94 | 16.8 | 6.93 | > 100 | 20.9 |  |
| CCCCCC(=O)N1c2ccccc2NC2=C(C(=O)CC(c3ccc(OC)c(OC)c3)C2)C1c1ccc(C(F)(F)F)cc1 (stereo unspecified) | > 100 | > 100 | > 100 | > 100 | > 100 | > 100 |  | > 100 | > 100 | > 100 | > 100 | 72.1 | > 100 | 20.4 | > 100 | > 100 | > 100 | > 100 | > 100 |  |
| CCCOc1ccc(/C=C\c2cc(OC)c(OC)c(OC)c2)cc1 | > 100 | > 100 | > 100 | > 100 | > 100 | > 100 | > 100 |  |  |  |  |  |  |  |  |  |  |  |  |  |
| CCOC(=O)c1sc(=S)c2c(C(=O)c3ccccc3)c(C(=O)c3ccccc3)sc2c1C(=O)OCC | 45.6 | > 100 | > 100 | > 100 | > 100 | 63.5 | 52.2 | 34.5 |  | > 100 | 15.8 | 4.16 | 4.1 | 3.61 |  | 8.87 | 4.25 | 8.64 | 3.17 | 4.94 |
| CCOC(=O)/C(C#N)=C(O)/C(=C/c1ccccc1Cl)NC(=O)c1ccccc1 | > 100 | > 100 | > 100 | > 100 | 52.2 | > 100 | > 100 |  |  |  |  |  |  |  |  |  |  |  |  |  |
| C=CCOc1cc2c(cc1C(C)c1ccc(OC)cc1)OCO2 (stereo unspecified) |  | > 47.9 | > 100 | > 100 | > 100 | > 100 | > 100 | > 100 |  |  |  |  |  |  |  |  |  |  |  |  |
| O=S(=O)(O)C(F)(F)C(F)(F)C(F)(F)C(F)(F)F | > 100 | > 100 | > 100 | > 100 | > 100 | > 100 | > 100 |  |  |  |  |  |  |  |  |  |  |  |  |  |
| Clc1ccc(C2=Nc3ccccc3SC(c3ccc(Cl)c(Cl)c3)C2)c(Cl)c1 (stereo unspecified) | 35 | 23.4 | 27.3 | 40 | 18.9 | 36.9 | 33.6 |  |  |  |  |  |  |  |  |  |  |  |  |  |
| COc1ccc(Cl)cc1N1C(=O)C(Cl)=C(Nc2cccc(O)c2)C1=O | 57.1 | 24.9 | 29.1 | > 100 | 63 | 31.9 | > 100 |  | 95.4 | > 100 | 21.6 | 11.8 | 14.4 |  | 27.2 | 30.2 | 27.4 | 22.6 | 11.3 | 32.8 |
| CCNC(=O)C(O)C1(O)CCC2[C@@H]3CCC4=CC(=O)C=C[C@]4(C)C3[C@@H](O)C[C@@]21C (stereo partly specified) | > 100 | > 100 | > 100 | > 100 | > 100 | > 100 | > 100 |  |  |  |  |  |  |  |  |  |  |  |  |  |
